Test results from patent publication US8415272B2, “Quinoline derivatives and their use as fungicides” (Syngenta Crop Protection LLC, priority 2008, dated 2013).

Assays:
Plasmopara viticola = assay: Leaf disk assay, Plasmopara viticola (downy mildew of grapevine), preventive; format: in vivo; details: foliar, 168 h, grapevine leaf disks, assessed seven days after inoculation, read-out: control of fungal infection, Plasmopara viticola
[1] = tested on: Erysiphe graminis f.sp. tritici; assay: Leaf disk assay, Erysiphe graminis f.sp. tritici (wheat powdery mildew), preventive; format: in vivo; details: Blumeria graminis, foliar, 96 h, wheat leaf segments, assessed four days after inoculation, read-out: control of fungal infection, Erysiphe graminis f.sp. tritici
Experimental: The compounds were tested in a leaf disk assay, with methods described below. The test compounds were dissolved in DMSO and diluted into water to 200 ppm. In the case of the test on Pythium ultimum, they were dissolved in DMSO and diluted into water to 20 […] graminis f.sp. tritici (wheat powdery mildew): Wheat leaf segments were placed on agar in a 24-well plate and sprayed with a solution of the test compound. After allowing to dry completely, for between 12 and 24 hours, the leaf disks were inoculated with a spore suspension of the fungus. After appropriate incubation the activity of a compound was assessed four days after inoculation as preventive fungicidal activity.

Phytophthora infestans = assay: whole plant or invertebrate; format: in vivo; details: in Solanum lycopersicum, foliar, 96 h, read-out: control of fungal infection, Phytophthora infestans
Septoria tritici = assay: Growth inhibition in nutrient broth, Septoria tritici (leaf blotch), photometric; format: cell-based; details: Zymoseptoria tritici, PDB broth, 24 C, 72 hrs, read-out: control of fungal infection, Septoria tritici
Pythium ultimum = assay: Growth inhibition in potato dextrose broth, Pythium ultimum (damping off), photometric; format: cell-based; details: Globisporangium ultimum, 24° C., 48 hours, read-out: control of fungal infection, Pythium ultimum
Experimental: The compounds were tested in a leaf disk assay, with methods described below. The test compounds were dissolved in DMSO and diluted into water to 200 ppm. In the case of the test on Pythium ultimum, they were dissolved in DMSO and diluted into water to 20 ppm. Pythium ultimum (Damping off): Mycelial fragments of the fungus, prepared from a fresh liquid culture, were mixed into potato dextrose broth. A solution of the test compound in dimethyl sulphoxide was diluted with water to 20 ppm then placed into a 96-well microtiter plate and the nutrient broth containing the fungal spores was added. The test plate was incubated at 24° C. and the inhibition of growth was determined photometrically after 48 hours.

Septoria nodorum = assay: Leaf disk assay, Septoria nodorum (wheat glume blotch), preventive; format: in vivo; details: Parastagonospora nodorum, foliar, 96 h, wheat leaf segments, assessed four days after inoculation, read-out: control of fungal infection, Septoria nodorum

Row | Compound | pest or weed control at 200 ppm (Plasmopara viticola) | pest or weed control at 200 ppm [1] | pest or weed control at 200 ppm (Phytophthora infestans) | inhibition of growth at 60 ppm (Septoria tritici) | inhibition of growth at 20 ppm (Pythium ultimum) | pest or weed control at 200 ppm (Septoria nodorum)
1 | COCC(C)(C#N)NC(=O)C(Oc1cc2cc(C#C[Si](C)(C)C)cnc2cc1F)SC (centres unmarked) [Example 5] | ≥ 60% | ≥ 60% | ≥ 60% | ≥ 60% | – | –
2 | COCC(C)(C#N)NC(=O)C(Oc1cc(C)c2ncc(C#CCO)cc2c1)SC (centres unmarked) [Example 27] | ≥ 60% | ≥ 60% | – | – | ≥ 60% | –
3 | COCC#Cc1cnc2c(C)cc(OC(SC)C(=O)NC(C)(C)C)cc2c1 (centres unmarked) [Example 32] | – | – | – | ≥ 60% | – | –
4 | COCC#Cc1cnc2c(C)cc(OC(SC)C(=O)NC(C)(C#N)COC)cc2c1 (centres unmarked) [Example 33] | – | – | ≥ 60% | ≥ 60% | ≥ 60% | –
5 | CC#CC(C)(C)NC(=O)C(Oc1cc(C)c2ncc(C#CCOC)cc2c1)SC (centres unmarked) [Example 35] | ≥ 60% | – | – | ≥ 60% | – | –
6 | C#CC(C)(C)NC(=O)C(Oc1cc(C)c2ncc(C#CCOC)cc2c1)SC (centres unmarked) [Example 36] | – | – | – | ≥ 60% | ≥ 60% | –
7 | CC#Cc1cnc2c(C)cc(OC(SC)C(=O)NC(C)(C)C)cc2c1 (centres unmarked) [Example 37] | – | – | – | ≥ 60% | – | –
8 | CC#Cc1cnc2c(C)cc(OC(SC)C(=O)NC(C)(C#N)COC)cc2c1 (centres unmarked) [Example 38] | – | ≥ 60% | – | ≥ 60% | ≥ 60% | –
9 | CC#Cc1cnc2c(C)cc(OC(SC)C(=O)NC(C)(C)C#CCOC)cc2c1 (centres unmarked) [Example 39] | ≥ 60% | – | ≥ 60% | ≥ 60% | – | –
10 | CC#Cc1cnc2c(C)cc(OC(SC)C(=O)NC(C)(C)C#CC)cc2c1 (centres unmarked) [Example 40] | – | – | – | ≥ 60% | – | –
11 | C#CC(C)(C)NC(=O)C(Oc1cc(C)c2ncc(C#CC)cc2c1)SC (centres unmarked) [Example 41] | – | – | – | ≥ 60% | – | –
12 | COCC#Cc1cnc2ccc(OC(SC)C(=O)NC(C)(C#N)COC)cc2c1 (centres unmarked) [Example 43] | – | ≥ 60% | ≥ 60% | – | ≥ 60% | –
13 | C#CC(C)(C)NC(=O)C(Oc1ccc2ncc(C#CCOC)cc2c1)SC (centres unmarked) [Example 46] | – | ≥ 60% | ≥ 60% | ≥ 60% | ≥ 60% | –
14 | CC#CC(C)(C)NC(=O)C(Oc1ccc2ncc(C#CCO)cc2c1)SC (centres unmarked) [Example 50] | ≥ 60% | – | ≥ 60% | – | ≥ 60% | –
15 | C#CC(C)(C)NC(=O)C(Oc1ccc2ncc(C#CCO)cc2c1)SC (centres unmarked) [Example 51] | ≥ 60% | – | ≥ 60% | – | ≥ 60% | –
16 | COCC(C)(C#N)NC(=O)C(Oc1ccc2ncc(C#CCO)cc2c1)SC (centres unmarked) [Example 52] | – | – | ≥ 60% | – | ≥ 60% | –
17 | CC#Cc1cnc2ccc(OC(SC)C(=O)NC(C)(C#N)COC)cc2c1 (centres unmarked) [Example 53] | – | – | ≥ 60% | ≥ 60% | ≥ 60% | ≥ 60%
18 | COCC#CC(C)(C)NC(=O)C(Oc1cc2cc(C#C[Si](C)(C)C)cnc2cc1F)SC (centres unmarked) [Example 58] | – | ≥ 60% | – | ≥ 60% | – | –
19 | CSCC(C)(C#N)NC(=O)C(Oc1ccc2ncc(C#C[Si](C)(C)C)cc2c1)SC (centres unmarked) [Example 59] | – | – | ≥ 60% | ≥ 60% | – | –
20 | COCOCC(C)(C)NC(=O)C(Oc1cc(C)c2ncc(C#C[Si](C)(C)C)cc2c1)SC (centres unmarked) [Example 60] | – | – | – | ≥ 60% | – | –
21 | COCCC(C)(C)NC(=O)C(Oc1ccc2ncc(C#C[Si](C)(C)C)cc2c1)SC (centres unmarked) [Example 78] | ≥ 60% | ≥ 60% | ≥ 60% | ≥ 60% | – | ≥ 60%
22 | COC(Oc1ccc2ncc(C#C[Si](C)(C)C)cc2c1)C(=O)NC(C)(C)C (centres unmarked) [Example 80] | ≥ 60% | ≥ 60% | ≥ 60% | ≥ 60% | – | –
23 | COCC(C)(COC)NC(=O)C(Oc1ccc2ncc(C#C[Si](C)(C)C)cc2c1)SC (centres unmarked) [Example 81] | – | – | ≥ 60% | ≥ 60% | – | ≥ 60%

Row | Compound | pest or weed control at 200 ppm (Plasmopara viticola) | pest or weed control at 200 ppm [1] | pest or weed control at 200 ppm (Phytophthora infestans) | inhibition of growth at 60 ppm (Septoria tritici) | inhibition of growth at 20 ppm (Pythium ultimum) | pest or weed control at 200 ppm (Septoria nodorum)
24 | CCOCC(C)(C)NC(=O)C(Oc1cc(C)c2ncc(C#C[Si](C)(C)C)cc2c1)SC (centres unmarked) [Example 89] | – | – | – | ≥ 60% | – | –
25 | CCC(C)(C)NC(=O)C(Oc1ccc2ncc(C#C[Si](C)(C)C)cc2c1)SC (centres unmarked) [Example 91] | ≥ 60% | ≥ 60% | – | ≥ 60% | – | –
26 | C#Cc1cnc2ccc(OC(SC)C(=O)NC(C)(C#N)CF)cc2c1 (centres unmarked) [Example 92] | – | – | – | – | ≥ 60% | –
27 | C#Cc1cnc2ccc(OC(SC)C(=O)NC)cc2c1 (centres unmarked) [Example 96] | ≥ 60% | ≥ 60% | ≥ 60% | ≥ 60% | ≥ 60% | ≥ 60%
28 | COCCC#CC(C)(C)NC(=O)C(Oc1ccc2ncc(C#C[Si](C)(C)C)cc2c1)SC (centres unmarked) [Example 100] | ≥ 60% | ≥ 60% | ≥ 60% | ≥ 60% | ≥ 60% | –
29 | CSC(Oc1cc2cc(C#C[Si](C)(C)C)cnc2cc1F)C(=O)NC(C)(C)C (centres unmarked) [Example 101] | – | – | – | ≥ 60% | – | –
30 | CCC#CC(C)(C)NC(=O)C(Oc1ccc2ncc(C#C[Si](C)(C)C)cc2c1)SC (centres unmarked) [Example 116] | ≥ 60% | ≥ 60% | ≥ 60% | ≥ 60% | – | –
31 | CCC#CC(C)(C)NC(=O)C(Oc1cc(Cl)c2ncc(C#C[Si](C)(C)C)cc2c1)SC (centres unmarked) [Example 119] | ≥ 60% | – | – | ≥ 60% | – | –
32 | CSC(Oc1cc(Cl)c2ncc(C#C[Si](C)(C)C)cc2c1)C(=O)NC(C)(C)C#CCCCCl (centres unmarked) [Example 120] | – | – | – | ≥ 60% | – | –
33 | C#Cc1cnc2c(Cl)cc(OC(SC)C(=O)NC(C)(C#CC)CC)cc2c1 (centres unmarked) [Example 121] | ≥ 60% | ≥ 60% | ≥ 60% | ≥ 60% | ≥ 60% | ≥ 60%
34 | C#Cc1cnc2ccc(OC(SC)C(=O)NC3(C=O)CCC3)cc2c1 (centres unmarked) [Example 150] | ≥ 60% | ≥ 60% | ≥ 60% | – | – | ≥ 60%
35 | C#CCOCC1(NC(=O)C(Oc2ccc3ncc(C#C)cc3c2)SC)CCC1 (centres unmarked) [Example 152] | ≥ 60% | ≥ 60% | ≥ 60% | ≥ 60% | – | ≥ 60%
36 | C#Cc1cnc2ccc(OC(SC)C(=O)N(C)C3(CO)CCC3)cc2c1 (centres unmarked) [Example 154] | – | – | – | – | ≥ 60% | –
37 | C#Cc1cnc2ccc(OC(SC)C(=O)NC(C)(C#C)C=O)cc2c1 (centres unmarked) [Example 161] | ≥ 60% | – | ≥ 60% | – | ≥ 60% | –
38 | C#Cc1cnc2ccc(OC(SC)C(=O)NC(C)(C#C)CO)cc2c1 (centres unmarked) [Example 173] | ≥ 60% | ≥ 60% | ≥ 60% | – | ≥ 60% | ≥ 60%
39 | C#Cc1cnc2ccc(OC(SC)C(=O)NCCO)cc2c1 (centres unmarked) [Example 194] | ≥ 60% | – | ≥ 60% | – | ≥ 60% | ≥ 60%
40 | C#Cc1cnc2c(F)c(F)c(OC(SC)C(=O)NC(C)(C#N)COC)cc2c1 (centres unmarked) [Example 216] | ≥ 60% | ≥ 60% | – | ≥ 60% | – | –
41 | CSC(Oc1cc2cc(C#C[Si](C)(C)C)cnc2c(F)c1F)C(=O)NC(C)(C)C (centres unmarked) [Example 217] | – | – | – | ≥ 60% | – | –
42 | C#Cc1cnc2ccc(OC(OC)C(=O)NC(C)(C)CO)cc2c1 (centres unmarked) [Example 220] | ≥ 60% | ≥ 60% | ≥ 60% | ≥ 60% | ≥ 60% | –
43 | C#Cc1cnc2ccc(OC(OC)C(=O)NC(C)(C)C=O)cc2c1 (centres unmarked) [Example 221] | ≥ 60% | ≥ 60% | ≥ 60% | ≥ 60% | ≥ 60% | –
44 | C#Cc1cnc2ccc(OC(SC)C(=O)NC3(C)CSC3)cc2c1 (centres unmarked) [Example 224] | – | – | – | ≥ 60% | ≥ 60% | –
45 | COCC#CC(C)(C)NC(=O)C(Oc1cc(Cl)c2ncc(C#CCF)cc2c1)SC (centres unmarked) [Example 227] | ≥ 60% | ≥ 60% | ≥ 60% | – | – | –
